# Values of other authors, collected in patent US11612595B2, “Compositions and methods for treating rheumatoid arthritis” (Generos Biopharma Ltd., priority 2017, dated 2023).
# What was measured:
# [1] = target: T1, STAT5 (Homo sapiens, UniProt P42229+P51692); set-up: endogenous in cells; details: Daudi cells; cited from earlier work
# T1 sequence (P42229 1-794): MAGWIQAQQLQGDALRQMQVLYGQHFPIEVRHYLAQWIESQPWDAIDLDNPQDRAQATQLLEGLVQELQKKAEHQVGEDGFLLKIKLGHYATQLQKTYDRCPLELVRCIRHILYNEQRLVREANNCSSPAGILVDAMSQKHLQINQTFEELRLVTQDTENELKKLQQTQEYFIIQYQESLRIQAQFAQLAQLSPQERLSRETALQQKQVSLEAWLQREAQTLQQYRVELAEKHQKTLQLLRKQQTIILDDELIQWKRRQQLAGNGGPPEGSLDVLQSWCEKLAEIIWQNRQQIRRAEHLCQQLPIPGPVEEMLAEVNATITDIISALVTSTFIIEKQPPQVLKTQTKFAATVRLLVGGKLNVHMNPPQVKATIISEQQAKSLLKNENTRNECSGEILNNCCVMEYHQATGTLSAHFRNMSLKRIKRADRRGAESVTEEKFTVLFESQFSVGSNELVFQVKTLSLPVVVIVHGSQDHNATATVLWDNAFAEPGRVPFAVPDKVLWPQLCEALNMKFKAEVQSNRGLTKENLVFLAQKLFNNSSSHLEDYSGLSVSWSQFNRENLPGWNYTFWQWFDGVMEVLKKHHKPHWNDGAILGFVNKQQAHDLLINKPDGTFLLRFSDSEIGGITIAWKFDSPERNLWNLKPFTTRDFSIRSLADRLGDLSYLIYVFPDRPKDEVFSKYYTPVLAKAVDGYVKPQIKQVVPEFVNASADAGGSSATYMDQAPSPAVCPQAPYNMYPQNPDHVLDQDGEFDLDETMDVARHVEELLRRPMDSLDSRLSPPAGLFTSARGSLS
# T1 sequence (P51692 1-787): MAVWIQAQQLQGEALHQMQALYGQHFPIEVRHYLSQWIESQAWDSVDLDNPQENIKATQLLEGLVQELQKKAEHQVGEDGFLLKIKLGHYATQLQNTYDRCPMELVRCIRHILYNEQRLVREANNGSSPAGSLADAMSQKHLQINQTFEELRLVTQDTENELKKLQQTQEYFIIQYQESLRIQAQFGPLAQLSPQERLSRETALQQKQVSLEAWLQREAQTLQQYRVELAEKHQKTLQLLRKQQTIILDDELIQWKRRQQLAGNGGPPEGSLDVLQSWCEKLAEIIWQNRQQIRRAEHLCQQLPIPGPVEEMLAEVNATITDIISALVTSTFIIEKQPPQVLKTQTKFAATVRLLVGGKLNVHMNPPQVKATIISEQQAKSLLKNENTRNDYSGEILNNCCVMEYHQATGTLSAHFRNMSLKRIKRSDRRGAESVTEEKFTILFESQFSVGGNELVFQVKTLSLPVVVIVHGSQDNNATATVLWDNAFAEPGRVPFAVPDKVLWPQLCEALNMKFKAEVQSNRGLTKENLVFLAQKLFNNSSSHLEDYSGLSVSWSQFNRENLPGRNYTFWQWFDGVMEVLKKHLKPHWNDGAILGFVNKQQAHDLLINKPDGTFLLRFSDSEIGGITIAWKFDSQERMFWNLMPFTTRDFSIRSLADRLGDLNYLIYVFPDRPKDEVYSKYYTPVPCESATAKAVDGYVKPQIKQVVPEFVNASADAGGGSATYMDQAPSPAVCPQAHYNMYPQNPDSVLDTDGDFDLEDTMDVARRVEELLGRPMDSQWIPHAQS
# [2] = target: SH2 domain of Lck (Homo sapiens, UniProt P06239); details: read-out: IC50 towards the SH2 domain of Lck; cited from earlier work
# [3] = tested on: Chronic Myeloid Leukemia (CML) cell lines; details: cited from earlier work
# [4] = target: STAT3 (Homo sapiens, UniProt P40763); set-up: IFNα-stimulated STAT1 phosphorylation or LIF-stimulated STAT3 phosphorylation in K562 cells; endogenous in cells; host or cells: K562 cells; details: K562 cells, 10 μM 1 h pretreatment; cited from earlier work
# [5] = target: T2, STAT1 (Homo sapiens, UniProt P42224); details: K562 cells, 10 μM 1 h pretreatment; cited from earlier work
# T2 sequence (P42224 1-750): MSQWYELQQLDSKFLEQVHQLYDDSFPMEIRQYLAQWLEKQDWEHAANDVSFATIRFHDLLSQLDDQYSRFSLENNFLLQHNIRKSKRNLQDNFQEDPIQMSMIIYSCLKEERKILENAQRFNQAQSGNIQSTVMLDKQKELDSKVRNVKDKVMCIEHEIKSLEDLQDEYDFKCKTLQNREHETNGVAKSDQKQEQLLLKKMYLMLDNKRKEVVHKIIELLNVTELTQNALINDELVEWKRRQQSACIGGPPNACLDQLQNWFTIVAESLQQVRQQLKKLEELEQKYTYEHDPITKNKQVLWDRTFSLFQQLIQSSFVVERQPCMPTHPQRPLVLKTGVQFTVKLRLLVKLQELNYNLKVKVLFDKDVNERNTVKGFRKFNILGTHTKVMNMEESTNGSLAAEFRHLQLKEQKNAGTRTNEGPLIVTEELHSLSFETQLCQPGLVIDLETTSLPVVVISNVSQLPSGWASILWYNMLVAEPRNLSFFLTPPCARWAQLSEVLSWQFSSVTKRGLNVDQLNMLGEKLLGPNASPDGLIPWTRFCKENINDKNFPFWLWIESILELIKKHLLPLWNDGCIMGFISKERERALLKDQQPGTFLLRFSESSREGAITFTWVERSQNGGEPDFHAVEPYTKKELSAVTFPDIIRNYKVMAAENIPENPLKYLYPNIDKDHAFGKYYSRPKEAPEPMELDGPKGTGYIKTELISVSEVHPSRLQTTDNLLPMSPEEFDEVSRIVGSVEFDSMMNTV
# SH2 domain of Lck, sequence (P06239 120-226 limits assumed): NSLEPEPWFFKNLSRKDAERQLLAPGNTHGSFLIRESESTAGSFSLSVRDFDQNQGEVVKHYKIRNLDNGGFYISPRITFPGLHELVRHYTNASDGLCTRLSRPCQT
# STAT3, sequence (P40763 whole entry): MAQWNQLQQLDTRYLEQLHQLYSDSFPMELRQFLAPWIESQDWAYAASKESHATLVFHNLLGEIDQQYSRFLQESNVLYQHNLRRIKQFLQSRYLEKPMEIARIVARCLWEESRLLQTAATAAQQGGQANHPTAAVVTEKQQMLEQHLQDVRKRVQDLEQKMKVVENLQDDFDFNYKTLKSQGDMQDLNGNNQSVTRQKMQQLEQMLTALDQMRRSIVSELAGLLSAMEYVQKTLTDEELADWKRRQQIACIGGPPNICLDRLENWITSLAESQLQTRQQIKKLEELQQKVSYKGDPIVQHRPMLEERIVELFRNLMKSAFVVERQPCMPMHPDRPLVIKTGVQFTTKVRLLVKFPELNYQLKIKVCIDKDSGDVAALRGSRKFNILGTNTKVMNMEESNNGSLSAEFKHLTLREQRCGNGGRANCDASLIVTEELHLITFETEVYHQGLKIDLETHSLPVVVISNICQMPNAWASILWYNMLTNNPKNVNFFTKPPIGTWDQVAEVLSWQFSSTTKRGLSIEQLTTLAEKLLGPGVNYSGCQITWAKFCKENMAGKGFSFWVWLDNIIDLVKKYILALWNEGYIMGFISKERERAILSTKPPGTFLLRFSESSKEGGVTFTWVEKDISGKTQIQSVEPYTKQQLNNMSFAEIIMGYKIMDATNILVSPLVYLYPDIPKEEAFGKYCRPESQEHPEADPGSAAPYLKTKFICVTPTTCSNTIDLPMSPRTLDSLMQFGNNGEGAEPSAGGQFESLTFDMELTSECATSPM
SMILES,IFN-α-stimulated STAT5 tyrosine phosphorylation [1],IC50 [2] [µM],cell cycle arrest and apoptosis [3],LIF-stimulated STAT3 phosphorylation [4],IFNα-stimulated STAT1 phosphorylation [5]
"O=C(N/N=C/c1coc2ccccc2c1=O)c1cccnc1 [nicotinohydrazide, N′-((4-Oxo-4H-chromen-3-yl)methylene)nicotinohydrazide]",inhibit,> 500,–,–,–
"O=c1[nH]c2ccccc2n1C1CCN(CCCC(c2ccc(F)cc2)c2ccc(F)cc2)CC1 [pimozide, 1-[1-[4,4-bis(4-fluorophenyl)butyl]-4-piperidinyl]-1,3-dihydro-2H-benzimidazole-2-one]",–,–,induces,little activity,little activity
